Article PMC5983617, “Hypouricemic Effect of 2,5-Dihydroxyacetophenone, a Computational Screened Bioactive Compound from Ganoderma applanatum, on Hyperuricemic Mice” (International Journal of Molecular Sciences, 2018)

Target: T1, XOD (xanthine oxidase) (Bos taurus, UniProt P80457)
T1 construct: gene XDH; oxidase form
Assay: xanthine oxidation, absorbance at […] nm, microplate reader
Type: biochemical

T1 sequence (P80457 2-1332): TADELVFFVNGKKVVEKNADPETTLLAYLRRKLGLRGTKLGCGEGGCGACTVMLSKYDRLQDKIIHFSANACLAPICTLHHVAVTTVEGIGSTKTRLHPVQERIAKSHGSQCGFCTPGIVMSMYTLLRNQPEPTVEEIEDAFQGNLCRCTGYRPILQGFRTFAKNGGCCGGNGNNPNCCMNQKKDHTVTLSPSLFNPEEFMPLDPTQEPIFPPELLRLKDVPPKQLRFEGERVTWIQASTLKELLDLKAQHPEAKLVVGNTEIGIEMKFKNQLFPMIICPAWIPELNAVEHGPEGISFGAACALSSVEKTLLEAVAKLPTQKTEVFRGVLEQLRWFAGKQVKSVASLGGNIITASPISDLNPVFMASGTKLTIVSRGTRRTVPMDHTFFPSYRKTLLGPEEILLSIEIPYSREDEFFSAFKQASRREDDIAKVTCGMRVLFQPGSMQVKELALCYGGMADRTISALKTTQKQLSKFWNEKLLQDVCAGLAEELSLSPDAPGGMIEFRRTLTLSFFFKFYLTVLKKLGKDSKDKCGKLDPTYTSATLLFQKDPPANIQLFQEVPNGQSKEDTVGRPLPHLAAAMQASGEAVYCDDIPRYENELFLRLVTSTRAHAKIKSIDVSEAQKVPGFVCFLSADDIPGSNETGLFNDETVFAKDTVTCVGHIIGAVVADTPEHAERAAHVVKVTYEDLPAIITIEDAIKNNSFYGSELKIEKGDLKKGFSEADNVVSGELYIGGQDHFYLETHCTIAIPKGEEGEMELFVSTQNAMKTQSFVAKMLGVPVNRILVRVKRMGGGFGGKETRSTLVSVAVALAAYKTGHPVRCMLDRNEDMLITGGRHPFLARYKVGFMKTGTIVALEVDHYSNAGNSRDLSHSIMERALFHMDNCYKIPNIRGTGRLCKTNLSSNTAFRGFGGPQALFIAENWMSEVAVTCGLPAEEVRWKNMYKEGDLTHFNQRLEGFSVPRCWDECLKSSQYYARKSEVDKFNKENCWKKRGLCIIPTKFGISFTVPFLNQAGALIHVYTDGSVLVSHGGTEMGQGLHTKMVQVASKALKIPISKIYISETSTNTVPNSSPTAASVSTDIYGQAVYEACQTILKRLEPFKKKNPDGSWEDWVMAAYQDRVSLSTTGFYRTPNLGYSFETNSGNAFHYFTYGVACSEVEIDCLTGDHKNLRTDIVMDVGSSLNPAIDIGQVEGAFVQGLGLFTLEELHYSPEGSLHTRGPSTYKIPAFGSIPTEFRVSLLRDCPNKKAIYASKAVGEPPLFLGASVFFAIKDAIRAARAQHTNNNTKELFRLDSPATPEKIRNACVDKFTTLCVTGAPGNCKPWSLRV

## CC(=O)c1cc(O)ccc1O [DHAP]
  IC50: 8.12 ± 0.27 µM
